{"source": "ChEMBL document CHEMBL4265871", "about": "“Novel alkylated azoles as potent antifungals” (Eur J Med Chem, 2017)", "key": {"[1]": {"tested_on": "Candida albicans", "assay": "Effect on sterol composition in Candida albicans ATCC 10231 assessed as eburicol level at 0.125 ug/mL incubated for […] by GC-MS analysis"}, "[2]": {"tested_on": "Candida albicans", "assay": "Effect on sterol composition in Candida albicans ATCC 64124 assessed as unknown sterol level at 1.95 ug/mL incubated for 10 mins by LC-MS analysis (reference value: 2.67 to 6.98%)"}, "[3]": {"tested_on": "Candida albicans", "assay": "Fungicidal activity against Candida albicans ATCC 10231 assessed as reduction in microbial growth at 4 times MIC incubated for 6 hrs by time kill assay", "type": "functional"}, "[4]": {"tested_on": "Candida albicans", "assay": "Effect on sterol composition in Candida albicans ATCC 10231 assessed as 14-alpha-methyl-ergosta-8,24(28)dien-3beta,6alpha-diol level at 0.125 ug/mL incubated for […] by GC-MS analysis"}, "[5]": {"tested_on": "Candida albicans", "assay": "Effect on sterol composition in Candida albicans ATCC 10231 assessed as ergosterol level at 0.125 ug/mL incubated for 10 mins by GC-MS analysis (reference value: 91.15%)"}, "[6]": {"tested_on": "Candida albicans", "assay": "Effect on sterol composition in Candida albicans ATCC 64124 assessed as eburicol level at 1.95 ug/mL incubated for 10 mins by LC-MS analysis (reference value: 6.28%)"}, "[7]": {"tested_on": "A549", "assay": "Toxicity in human A549 cells assessed as reduction in cell viability up to 7.8 ug/ml incubated for 24 hrs by resazurin dye based assay", "conditions": "a549, 24 h"}, "[8]": {"tested_on": "BEAS-2B", "assay": "Toxicity in human BEAS2B cells assessed as reduction in cell viability up to 7.8 ug/ml incubated for 24 hrs by resazurin dye based assay"}}, "data": [{"compound": "CCCCCCC(O)(Cn1cncn1)c1ccc(Cl)cc1Cl", "note": "(stereo not drawn)", "values": [{"measurement": "Activity", "setting": "[1]", "value": 2.93, "unit": "%"}, {"measurement": "Activity", "setting": "[2]", "value": "4.25 - 13.04%"}, {"measurement": "Activity", "setting": "[3]", "value": 1.25, "unit": "log10CFU"}, {"measurement": "Activity", "setting": "[4]", "value": 18.81, "unit": "%"}, {"measurement": "Activity", "setting": "[5]", "value": 49, "unit": "%"}, {"measurement": "Activity", "setting": "[6]", "value": 47.97, "unit": "%"}]}, {"compound": "CCCCCCCCC(O)(Cn1cncn1)c1ccc(F)cc1F", "note": "(stereo not drawn)", "values": [{"measurement": "Activity", "setting": "[7]", "value": "Non-Toxic"}, {"measurement": "Activity", "setting": "[8]", "value": "Non-Toxic"}]}]}
